In patent US20220227745A1, “Compounds For Modulating FXR” (NANJING RUIJIE PHARMA TECH CO., LTD., priority 2019, published 2022):

Legend:
FXR LBD, GST = target: T1, FXR LBD, GST (Homo sapiens, UniProt Q96RI1); test: FXR Binding Assay (TR-FRET, Fluorescein-SRC2-2 coactivator peptide); details: for Emax / Pct Effect (Emax %): % Activity relative to positive control; for Emax: read-out: Pct Effect (Emax %); for EC50: TR-FRET FXR LBD coactivator recruitment
T1 construct: FXR LBD, GST; purchased Invitrogen PV4834
T1 sequence (Q96RI1 262-486 limits assumed): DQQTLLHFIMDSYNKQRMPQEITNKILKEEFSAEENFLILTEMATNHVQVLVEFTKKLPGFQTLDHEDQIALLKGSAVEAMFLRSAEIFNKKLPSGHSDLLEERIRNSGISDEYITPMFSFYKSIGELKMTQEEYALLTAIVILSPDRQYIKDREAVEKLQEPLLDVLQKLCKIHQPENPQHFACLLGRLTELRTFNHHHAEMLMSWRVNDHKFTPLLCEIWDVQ

[1] = target: T2, hFXR-LBD (FXR-GAL4 chimeric receptor) (Homo sapiens, UniProt Q96RI1); test: FXR Transactivation Assay (GAL4 luciferase reporter in HEK293T cells); type: cell-based
T2 construct: host or cells: HEK293T
T2 sequence (Q96RI1 262-486 limits assumed): T1 sequence (Q96RI1 262-486 limits assumed)
Protocol: FXR Transactivation Assay
The present compounds were tested to assess their ability to stimulate FXR transactivation activity. The hFXR-LBD, coding sequence was inserted into the pBIND expression vector (Promega, E1581) to express FXR-GAL4 binding domain chimeric receptors. This expression vector and reporter vector (pGL4.35 which carry a stably integrated GAL4 promoter driven luciferase reporter gene) were co-transfected into HEK293T host cells. Upon agonist binding to the corresponding FXR-GAL4 chimeric receptor, the chimeric receptor binds to the GAL4 binding sites and stimulates the reporter gene.
All the working stock were shake for 5 min on plate shaker (QILINBEIER). Second, all cells were cultured as ATCC recommended. HEK293T cells were assayed in exponential growth phase. Removed culture medium from the flask and rinsed cells with PBS. Added TrypLE solution to the flask and make cells detach. Next, cells were washed once with complete growth medium. Then, cells were pelleted and washed twice with PBS to remove phenol red and resuspend them in medium to a proper concentration. Only cells with viability greater than 90% were used for assays. Seeded 6×10^6 HEK293T cells into a 100 mm dish and incubated at 37° C. under 5% CO2 atmosphere for 16 h. Third, Trans-IT reagent and Opti-MEM mix by inversion and incubate 5 min at room temperature. The cell transfection was performed by mixing DNA and the reagent mixture, as well as 6 μg GAL4-FXR plasmid or 2 μg pGL4.35 luciferase plasmid, respectively. The reagent mixture was added to a 100 mm dish and incubated for 4-7 hrs at 37° C. under 5% CO2 atmosphere. Fourth, transferred 75 nl compound dilutions into 384-well assay plates (PerkinElmer) and seeded HEK293T cells at 17,000 cells/well using phenol red-free DMEM containing 5% charcoal/dextran-treated FBS. Then, cells were incubated for 16-20 h at 37° C. under 5% CO2 atmosphere. Finally, added 25 μl Steady-Glo™ Luciferase Assay Reagent into each well of 384-well assay plate, and then shake plate for 5 min protected from light on a plate shaker. Then, the luminescence value was read on Evision 2104 plate reader (PerkinElmer).
The activity ratio was calculated as follow: […]
RLU: Resulting Luminescence
RLUpositive: The average RLU for the positive controls across the plate.
RLUvehicle: The average RLU for negative controls across the plate.
EC50 was calculated by fitting % Activity values and log of compound concentrations to nonlinear regression (dose response-variable slope) with GraphPad 5.0.
X: log of compound concentration.

[2] = in vivo; cited from earlier work
FXR = target: T3, FXR (Homo sapiens, UniProt Q96RI1); details: cited from earlier work
T3 sequence (Q96RI1 1-486): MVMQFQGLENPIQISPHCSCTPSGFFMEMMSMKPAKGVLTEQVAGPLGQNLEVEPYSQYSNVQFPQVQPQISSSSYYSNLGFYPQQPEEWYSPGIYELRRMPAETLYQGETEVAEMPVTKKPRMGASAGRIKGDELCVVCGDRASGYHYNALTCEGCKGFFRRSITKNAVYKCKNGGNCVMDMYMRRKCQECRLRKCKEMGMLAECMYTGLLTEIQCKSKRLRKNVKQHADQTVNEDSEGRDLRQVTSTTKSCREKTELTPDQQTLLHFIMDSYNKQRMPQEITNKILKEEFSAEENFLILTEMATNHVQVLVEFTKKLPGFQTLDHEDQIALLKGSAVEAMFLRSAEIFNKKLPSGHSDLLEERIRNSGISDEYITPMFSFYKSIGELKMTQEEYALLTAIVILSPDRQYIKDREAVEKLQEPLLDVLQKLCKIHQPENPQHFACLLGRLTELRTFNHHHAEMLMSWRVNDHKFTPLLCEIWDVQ

[3] = cited from earlier work
other nuclear receptor = details: cited from earlier work
[4] = preclinical species; cited from earlier work
[5] = OCA treatment, clinical studies; cited from earlier work

`Cn1cc(C(=O)O)c2ccc(N3CCN(CCc4c(-c5ccccc5C(F)(F)F)noc4C4CC4)CC3)cc21` [Example I26, 6-(4-(2-(5-cyclopropyl-3-(2-(trifluoromethyl)phenyl)isoxazol-4-yl)ethyl)piperazin-1-yl)-1-methyl-1H-indole-3-carboxylic Acid] showed an Emax (FXR LBD, GST) of 214%, an EC50 (FXR LBD, GST) of 882 nM and an EC50 [1] of 1210 nM.

In the case of `Cc1onc(-c2c(Cl)cccc2Cl)c1CCN1CCN(c2ccc3c(C(=O)O)cn(C)c3c2)CC1` [Example I27, 6-(4-(2-(3-(2,6-dichlorophenyl)-5-methylisoxazol-4-yl)ethyl)piperazin-1-yl)-1-methyl-1H-indole-3-carboxylic Acid], the Emax (FXR LBD, GST) is reported as 91.1%, the EC50 (FXR LBD, GST) is reported as 454 nM and the EC50 [1] is reported as 1800 nM.

Work on `Cn1cc(C(=O)O)c2ccc(N3C4CCC3CN(CCc3c(-c5c(Cl)cccc5Cl)noc3C3CC3)C4)cc21` [Example I30, 6-(3-(2-(5-cyclopropyl-3-(2,6-dichlorophenyl)isoxazol-4-yl)ethyl)-3,8-diazabicyclo[3.2.1]octan-8-yl)-1-methyl-1H-indole-3-carboxylic Acid] yielded an Emax (FXR LBD, GST) of 111%, an EC50 (FXR LBD, GST) of 60 nM and an EC50 [1] of 1200 nM.

`C[C@@H]1CN(c2ccc3c(C(=O)O)cn(C)c3c2)CCN1CCc1c(-c2c(Cl)cccc2Cl)noc1C1CC1` [Example I35, (R)-6-(4-(2-(5-cyclopropyl-3-(2,6-dichlorophenyl)isoxazol-4-yl)ethyl)-3-methylpiperazin-1-yl)-1-methyl-1H-indole-3-carboxylic Acid] showed an Emax (FXR LBD, GST) of 156%, an EC50 (FXR LBD, GST) of 97 nM and an EC50 [1] of 494 nM.

For `Cn1cc(C(=O)O)c2ccc(C3CCN(CCc4c(-c5c(Cl)cccc5Cl)noc4C4CC4)CC3)cc21` [Example I36, 6-(1-(2-(5-cyclopropyl-3-(2,6-dichlorophenyl)isoxazol-4-yl)ethyl)piperidin-4-yl)-1-methyl-1H-indole-3-carboxylic Acid], the Emax (FXR LBD, GST) was 161%, the EC50 (FXR LBD, GST) was 94 nM and the EC50 [1] was 577 nM.

Work on `C[C@H]1CN(c2ccc3c(C(=O)O)cn(C)c3c2)CCN1CCc1c(-c2c(Cl)cccc2Cl)noc1C1CC1` [Example I37, (S)-6-(4-(2-(5-cyclopropyl-3-(2,6-dichlorophenyl)isoxazol-4-yl)ethyl)-3-methylpiperazin-1-yl)-1-methyl-1H-indole-3-carboxylic Acid] yielded an Emax (FXR LBD, GST) of 232%, an EC50 (FXR LBD, GST) of 101 nM and an EC50 [1] of 574 nM.

`Cn1cc(C(=O)O)c2ccc(N3CCN(CCc4c(-c5c(Cl)cccc5Cl)noc4C4CC4)C(C)(C)C3)cc21` [Example I38, 6-(4-(2-(5-cyclopropyl-3-(2,6-dichlorophenyl)isoxazol-4-yl)ethyl)-3,3-dimethylpiperazin-1-yl)-1-methyl-1H-indole-3-carboxylic Acid] gave an Emax (FXR LBD, GST) of 133%, an EC50 (FXR LBD, GST) of 48 nM and an EC50 [1] of 377 nM.

`C[C@@H]1CN(CCc2c(-c3c(Cl)cccc3Cl)noc2C2CC2)CCN1c1ccc2c(C(=O)O)cn(C)c2c1` [Example I40, (R)-6-(4-(2-(5-cyclopropyl-3-(2,6-dichlorophenyl)isoxazol-4-yl)ethyl)-2-methylpiperazin-1-yl)-1-methyl-1H-indole-3-carboxylic Acid] showed an Emax (FXR LBD, GST) of 131%, an EC50 (FXR LBD, GST) of 77 nM and an EC50 [1] of 343 nM.

With `Cn1cc(C(=O)O)c2cc(F)c(N3CCN(CCc4c(-c5c(Cl)cccc5Cl)noc4C4CC4)CC3)cc21` [Example I42, 6-(4-(2-(5-cyclopropyl-3-(2,6-dichlorophenyl)isoxazol-4-yl)ethyl)piperazin-1-yl)-5-fluoro-1-methyl-1H-indole-3-carboxylic Acid] the “Pct Effect (Emax %)” value (FXR LBD, GST) was 196.20%, the EC50 (FXR LBD, GST) was 99 nM and the EC50 [1] was 551 nM.

In the case of `Cn1cc(C(=O)O)c2cc(F)c(N3CCN(CCc4c(-c5c(Cl)cccc5Cl)noc4C4CC4)CC3)cc21` [Example I45, 6-(4-(2-(5-cyclopropyl-3-(2,6-dichlorophenyl)isoxazol-4-yl)ethyl)piperazin-1-yl)-5-fluoro-1-methyl-1H-indole-3-carboxylic Acid], the “Pct Effect (Emax %)” value (FXR LBD, GST) is reported as 161.70%, the EC50 (FXR LBD, GST) is reported as 72 nM and the EC50 [1] is reported as 224 nM.

Molecule `CN(Cc1c(-c2c(Cl)cccc2Cl)noc1C1CC1)C1CCN(c2ccc3c(C(=O)O)cn(C)c3c2)CC1` [Example I58, 6-(4-(((5-cyclopropyl-3-(2,6-dichlorophenyl)isoxazol-4-yl)methyl)(methyl)amino)piperidin-1-yl)-1-methyl-1H-indole-3-carboxylic Acid] has an Emax (FXR LBD, GST) of 83.4%, an EC50 (FXR LBD, GST) of 497 nM and an EC50 [1] of 2270 nM.

For `CC(C)c1onc(-c2c(Cl)cccc2Cl)c1COc1ccc(/C=C/c2cccc(C(=O)O)c2)c(Cl)c1` [GW4604], the bioavailability [2] is given as “low bioavailability” and the “agonistic activity to FXR” value (FXR) is given as “strong agonistic activity”.

For `O=C(O)c1cc(F)c2nc(N3[C@@H]4CC[C@H]3C[C@@H](OCc3c(-c5ccccc5OC(F)(F)F)noc3C3CC3)C4)sc2c1` [LJN452], the drug-related pruritus ([3]; after multiple doses) is listed as “No drug-related pruritus was observed”, the ALT/AST ([3]; individual subjects) is listed as “ALT/AST increased in individual subjects” and the drug-related adverse reactions ([3]; single dose of up to 3 mg) is listed as “No drug-related adverse reactions were observed”. The safety and tolerability ([3]; single dose of up to 3 mg) was “performed well in safety and tolerability”.

For `Cn1cc(C(=O)O)c2ccc(N3CCC(OCc4c(-c5c(Cl)cccc5Cl)noc4C4CC4)CC3)cc21` [LY-2562175], the “transcriptional activation of other nuclear receptor” value (other nuclear receptor) is listed as “didn't promote transcriptional activation of other nuclear receptor” and the “effect on LDL, triglycerides and HDL” value [4] is listed as “lowered LDL and triglycerides while raising HDL”.

In the case of `CC[C@H]1[C@@H](O)[C@@H]2[C@H](CC[C@]3(C)[C@@H]([C@H](C)CCC(=O)O)CC[C@@H]23)[C@@]2(C)CC[C@@H](O)C[C@@H]12` [OCA, 6α-ethyl-chenodeoxycholic acid], the pruritus [5] is given as “may be associated with increased pruritus”.
